ChEMBL document CHEMBL3046449, “Selective Herbicidal Activities of Ethyl 5-(4, 6-Dimethoxypyrimidin-2-ylcarbamoylsulfamoyl)-1-methylpyrazole-4-carboxylate and Its Related Compounds” (J Pestic Sci, 1990)

Legend:
[1] = test system: Pontederia vaginalis; assay: Herbicidal activity against Monochoria vaginalis assessed as growth inhibition in paddy condition under greenhouse at 5 g/ha measured after 18 days by preemergence activity assay; type: functional; details: pre-emergence, 432 h, read-out: GI
[2] = test system: Rotala indica; assay: Herbicidal activity against Rotala indica assessed as growth inhibition in paddy condition under greenhouse at 5 g/ha measured after 18 days by preemergence activity assay; type: functional; details: pre-emergence, 432 h, read-out: GI
[3] = test system: Schoenoplectiella juncoides; assay: Herbicidal activity against Schoenoplectiella juncoides assessed as growth inhibition in paddy condition under greenhouse at 5 g/ha measured after 18 days by preemergence activity assay; type: functional; details: pre-emergence, 432 h, read-out: GI
[4] = test system: Echinochloa crus-galli; assay: Herbicidal activity against Echinochloa crus-galli (barnyard grass) assessed as growth inhibition in paddy condition under greenhouse at 5 g/ha measured after 18 days by preemergence activity assay; type: functional; details: pre-emergence, 432 h, read-out: GI
[5] = Phytotoxicity against Oryza sativa (rice) assessed as growth inhibition under greenhouse at 5 g/ha measured after 18 days by preemergence activity assay; type: organism-based; details: in vivo, read-out: GI
[6] = test system: Oryza sativa; assay: Effect on Oryza sativa (rice) plant growth in transplanted Oryza sativa field assessed as number of tillers at 1500 g/ha treated after 3 days transplanting; type: organism-based; details: in vivo, other, 72 h
[7] = test system: Pontederia vaginalis; assay: Herbicidal activity against Monochoria vaginalis assessed as weed control in transplanted rice field at 1500 g/ha treated after 3 days transplanting; type: functional
[8] = test system: unidentified; assay: Herbicidal activity against broadleaf weed assessed as weed control in transplanted rice field at 1500 g/ha treated after 3 days transplanting; type: functional
[9] = test system: Echinochloa crus-galli; assay: Herbicidal activity against Echinochloa crus-galli (barnyard grass) assessed as weed control in transplanted rice field at 1500 g/ha treated after 3 days transplanting; type: functional
[10] = test system: unidentified; assay: Herbicidal activity against broadleaf weed assessed as weed control in transplanted rice field at 1500 g/ha treated after 7 days transplanting; type: functional
[11] = test system: Sagittaria pygmaea; assay: Herbicidal activity against Sagittaria pygmaea assessed as weed control in transplanted rice field at 1500 g/ha treated after 7 days transplanting; type: functional
[12] = test system: Sagittaria pygmaea; assay: Herbicidal activity against Sagittaria pygmaea assessed as weed control in transplanted rice field at 1500 g/ha treated after 3 days transplanting; type: functional
[13] = test system: Oryza sativa; assay: Effect on Oryza sativa (rice) plant growth in transplanted Oryza sativa field assessed as plant height at 1500 g/ha treated after 3 days transplanting; type: organism-based; details: in vivo, other, 72 h
[14] = test system: Echinochloa crus-galli; assay: Herbicidal activity against Echinochloa crus-galli (barnyard grass) assessed as weed control in transplanted rice field at 1500 g/ha treated after 7 days transplanting; type: functional
[15] = test system: Pontederia vaginalis; assay: Herbicidal activity against Monochoria vaginalis assessed as weed control in transplanted rice field at 1500 g/ha treated after 7 days transplanting; type: functional
[16] = test system: Cyperus serotinus; assay: Herbicidal activity against Cyperus serotinus assessed as weed control in transplanted rice field at 1500 g/ha treated after 7 days transplanting; type: functional
[17] = test system: Oryza sativa; assay: Effect on Oryza sativa (rice) plant growth in transplanted Oryza sativa field assessed as number of tillers at 1500 g/ha treated after 7 days transplanting; type: organism-based; details: in vivo, other, 168 h
[18] = test system: Schoenoplectiella juncoides; assay: Herbicidal activity against Schoenoplectiella juncoides assessed as weed control in transplanted rice field at 1500 g/ha treated after 3 days transplanting; type: functional
[19] = test system: Cyperus serotinus; assay: Herbicidal activity against Cyperus serotinus assessed as weed control in transplanted rice field at 1500 g/ha treated after 3 days transplanting; type: functional
[20] = test system: Schoenoplectiella juncoides; assay: Herbicidal activity against Schoenoplectiella juncoides assessed as weed control in transplanted rice field at 1500 g/ha treated after 7 days transplanting; type: functional
[21] = test system: Oryza sativa; assay: Effect on Oryza sativa (rice) plant growth in transplanted Oryza sativa field assessed as plant height at 1500 g/ha treated after 7 days transplanting; type: organism-based; details: in vivo, other, 168 h

Structure (SMILES)	inhibition of growth at 5 g/ha [1]	inhibition of growth at 5 g/ha [2]	inhibition of growth at 5 g/ha [3]	inhibition of growth at 5 g/ha [4]	inhibition at 432 h [5]	other results
CCOC(=O)c1c(CC)nn(C)c1S(=O)(=O)NC(=O)Nc1nc(OC)cc(OC)n1	70%	> 90%	40%	20%	< 5%	–
CCOC(=O)c1c(Cl)nn(C)c1S(=O)(=O)NC(=O)Nc1nc(OC)cc(OC)n1	> 90%	> 90%	70%	20%	< 5%	–
CCOC(=O)c1c(C(F)(F)F)nn(C)c1S(=O)(=O)NC(=O)Nc1nc(OC)cc(OC)n1	< 5%	20%	< 5%	< 5%	< 5%	–
CCOC(=O)c1c([N+](=O)[O-])nn(C)c1S(=O)(=O)NC(=O)Nc1nc(OC)cc(OC)n1	20%	70%	5%	< 5%	5%	–
CCOC(=O)c1c(OC)nn(C)c1S(=O)(=O)NC(=O)Nc1nc(OC)cc(OC)n1	> 90%	> 90%	70%	40%	< 5%	–
CCOC(=O)c1nn(C)c(S(=O)(=O)NC(=O)Nc2nc(OC)cc(OC)n2)c1C(=O)OCC	< 5%	< 5%	< 5%	< 5%	< 5%	–
CCCOC(=O)c1cnn(C)c1S(=O)(=O)NC(=O)Nc1nc(OC)cc(OC)n1	> 90%	> 90%	70%	< 5%	< 5%	–
CCCCOC(=O)c1cnn(C)c1S(=O)(=O)NC(=O)Nc1nc(OC)cc(OC)n1	< 5%	< 5%	< 5%	< 5%	< 5%	–
COc1cc(OC)nc(NC(=O)NS(=O)(=O)c2c(C(=O)N(C)C)cnn2C)n1	< 5%	< 5%	< 5%	< 5%	< 5%	–
COc1cc(OC)nc(NC(=O)NS(=O)(=O)c2c(S(=O)(=O)N(C)C)cnn2C)n1	70%	> 90%	> 90%	40%	> 90%	–
COc1cc(OC)nc(NC(=O)NS(=O)(=O)c2c(C#N)cnn2C)n1	< 5%	< 5%	< 5%	< 5%	< 5%	–
COc1cc(OC)nc(NC(=O)NS(=O)(=O)c2c([N+](=O)[O-])cnn2C)n1	< 5%	< 5%	< 5%	< 5%	< 5%	–
CCC(=O)c1cnn(C)c1S(=O)(=O)NC(=O)Nc1nc(OC)cc(OC)n1	40%	40%	20%	5%	< 5%	–
CCOC(=O)c1cn[nH]c1S(=O)(=O)NC(=O)Nc1nc(OC)cc(OC)n1	70%	70%	70%	5%	5%	–
CCOC(=O)c1cnn(CC)c1S(=O)(=O)NC(=O)Nc1nc(OC)cc(OC)n1	> 90%	> 90%	70%	5%	5%	–
CCCCn1ncc(C(=O)OCC)c1S(=O)(=O)NC(=O)Nc1nc(OC)cc(OC)n1	< 5%	< 5%	< 5%	< 5%	< 5%	–
CCOC(=O)c1cnn(-c2ccccc2)c1S(=O)(=O)NC(=O)Nc1nc(OC)cc(OC)n1	40%	70%	20%	< 5%	< 5%	–
CCOC(=O)c1cnn(C)c1S(=O)(=O)NC(=O)Nc1nc(C)cc(C)n1	< 5%	40%	< 5%	< 5%	5%	–
CCOC(=O)c1cnn(C)c1S(=O)(=O)NC(=O)Nc1nc(C)cc(OC)n1	70%	> 90%	70%	5%	< 5%	–
CCOC(=O)c1cnn(C)c1S(=O)(=O)NC(=O)Nc1nc(OC)nc(OC)n1	< 5%	< 5%	< 5%	< 5%	5%	–
COc1cc(OC)nc(NC(=O)NS(=O)(=O)c2c(C)cnn2C)n1	40%	70%	20%	20%	< 5%	–
COc1cc(OC)nc(NC(=O)NS(=O)(=O)c2c(Br)cnn2C)n1	70%	40%	40%	< 5%	< 5%	–
COc1cc(OC)nc(NC(=O)NS(=O)(=O)c2c(C(=O)O)cnn2C)n1	< 5%	< 5%	< 5%	< 5%	< 5%	–
COC(=O)c1cnn(C)c1S(=O)(=O)NC(=O)Nc1nc(OC)cc(OC)n1	> 90%	> 90%	70%	40%	< 5%	–
CCOC(=O)c1c(C)nn(C)c1S(=O)(=O)NC(=O)Nc1nc(OC)cc(OC)n1	> 90%	> 90%	> 90%	70%	< 5%	–
CCCCOCN(C(=O)CCl)c1c(CC)cccc1CC [BUTACHLOR]	–	–	–	–	–	Activity [6]: 99%; Activity [7]: 90%; Activity [8]: 100%; Activity [9]: 98%; Activity [10]: 83%; Activity [11]: 20%; Activity [12]: 27%; Activity [13]: 106%; Activity [14]: 100%; Activity [15]: 43%; Activity [16]: 70%; Activity [17]: 93%; Activity [18]: 100%; Activity [19]: 63%; Activity [20]: 88%; Activity [21]: 103%
